# From the supplement of paper PMC10307832
# How the values were obtained:
# Experiment in all cases: relative viability (nuclei count vs DMSO), 5 days (fraction); higher = more cells survive
# [1] = compound: CCn1c(-c2nonc2N)nc2cnc(Oc3cccc(NC(=O)c4ccc(OCCN5CCOCC5)cc4)c3)cc21 + COc1cc2c(Oc3ccc(NC(=O)C4(C(=O)Nc5ccc(F)cc5)CC4)cc3F)ccnc2cc1OCCCN1CCOCC1 [Foretinib] (partner 0.25 µM)
# Procedure, shortened: (§1)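 Lung cancer cell lines were pin-tool dosed in 1536-well plates on the day after seeding, with either a lone drug or a fixed anchor-drug dose plus five library-drug doses (not always all listed) in √10 steps. Nuclei were counted on 4× images after 5 days. Relative viability is the ratio of treated-well to vehicle-well nuclei counts, with each value a median of duplicate plates.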
# [2] = compound: CCC1=CN=CN=C1N2CCN(CC2)CC3=NC4=C(N3)C=C(C=C4)C(F)(F)F + Cc1cc(Nc2cc(N3CCN(C)CC3)nc(Sc3ccc(NC(=O)C4CC4)cc3)n2)n[nH]1 [Tozasertib] (partner 0.1 µM)
# Procedure, shortened: as §1
# [3] = compound: CCn1c(-c2nonc2N)nc2cnc(Oc3cccc(NC(=O)c4ccc(OCCN5CCOCC5)cc4)c3)cc21 + CC(=O)c1c(C)c2cnc(Nc3ccc(N4CCNCC4)cn3)nc2n(C2CCCC2)c1=O [Palbociclib] (partner 0.5 µM)
# Procedure, shortened: as §1
# [4] = compound: CCn1c(-c2nonc2N)nc2cnc(Oc3cccc(NC(=O)c4ccc(OCCN5CCOCC5)cc4)c3)cc21 + Nc1nc2[nH]cc(CCc3ccc(C(=O)N[C@@H](CCC(=O)O)C(=O)O)cc3)c2c(=O)[nH]1 [Pemetrexed] (partner 0.2 µM)
# Procedure, shortened: as §1
cell line,measurement,setting,value
UMC-11,relative viability,[1]; first compound 0.04 µM,1.04
same,relative viability,[1]; first compound 0.1265 µM,0.903
same,relative viability,[1]; first compound 0.4 µM,0.68
same,relative viability,[1]; first compound 1.265 µM,0.245
same,relative viability,[1]; first compound 4 µM,0.186
same,relative viability,[2]; first compound 0.04 µM,0.197
same,relative viability,[2]; first compound 0.1265 µM,0.216
same,relative viability,[2]; first compound 0.4 µM,0.216
same,relative viability,[2]; first compound 1.265 µM,0.204
same,relative viability,[2]; first compound 4 µM,0.214
same,relative viability,[3]; first compound 0.04 µM,0.277
same,relative viability,[3]; first compound 0.1265 µM,0.379
same,relative viability,[3]; first compound 0.4 µM,0.269
same,relative viability,[3]; first compound 1.265 µM,0.151
same,relative viability,[3]; first compound 4 µM,0.248
same,relative viability,[4]; first compound 0.04 µM,0.813
same,relative viability,[4]; first compound 0.1265 µM,0.596
same,relative viability,[4]; first compound 0.4 µM,0.613
same,relative viability,[4]; first compound 1.265 µM,0.283
same,relative viability,[4]; first compound 4 µM,0.231
